Read-outs that look alike come from different tables or passages of the source.
Experiments:
[1] = tested on: HmaS At-His purified enzyme (HMAS); settings: for Generated amount of mandelate: 10 mM sodium phenylpyruvate, 25° C., 15 minutes, no hydrogen peroxide taken as 100%
Experimental: Cells were collected from 10 mL of the HmaS At culture broth obtained in Example 2 by centrifugation, suspended in 2 mL of xTractor Buffer (Takara Bio), and allowed to stand at room temperature for 20 minutes, to disrupt the cells. The cell residue was removed from the disruptant by centrifugation, and the obtained supernatant was used as a soluble fraction. The soluble fraction was applied to a His-tag protein purification column HisTALON Superflow Cartridges (Takara Bio, CV=1 mL) equilibrated with a buffer containing 20 mM Tris-HCl (pH 8.0), 300 mM NaCl, and 10 mM Imidazole, to adsorb proteins on the carrier. Proteins not adsorbed on the carrier (non-adsorbed proteins) were washed off with a buffer containing 20 mM Tris-HCl (pH 8.0), 300 mM NaCl, and 10 mM Imidazole, and then a buffer containing 20 mM Tris-HCl (pH 8.0), 300 mM NaCl, and 150 mM Imidazole was flowed at 1.5 mL/min, to elute the adsorbed proteins. The eluted fractions were collected and concentrated using Amicon Ultra-15 30 k (Millipore). The concentrate was diluted with 20 mM of Tris-HCl (pH 7.6), and hereinafter used as a HmaS At-His purified enzyme.
A reaction mixture (0.2 mL) containing 10 mM of sodium phenylpyruvate, 0.01 mM of iron sulfate, 10 mM of trisodium citrate, 10 mM of sodium ascorbate, 100 mM of Tris-HCl (pH 7.0), 0.02 mg/mL of the HmaS At-His purified enzyme, and 0 to 1 mM of hydrogen peroxide was put into a 1.5 mL-volume tube, and a reaction was carried out at 25° C. Similarly, a reaction without addition of HmaS At-His was carried out. After 15 minutes, a 0.05 mL aliquot of the reaction mixture was mixed with 0.2 mL of a reaction stop solution (1% phosphoric acid), and subjected to HPLC analysis. HPLC analysis was carried out in the same manner as Example 5, and mandelate enzymatically-generated was quantified. The amount of hydrogen peroxide added and the generated amount of mandelate are shown in Table 3, wherein the generated amount of mandelate in the case of not adding hydrogen peroxide was taken as 100%.

[2] = tested on: benzaldehyde generation from L-Phe by AAD, HmaS At, Md1B and Md1C concentrates; experiment: Synthesis of benzaldehyde from L-Phe with addition of culture broth of catalase-expressing strain; assay type: biochemical, E. coli; settings: 50 mM L-Phe, 0.1 mL of 5-fold Cat concentrate in 1 mL reaction mixture, 25° C., 20 hours, then Md1C concentrate 4 hours; HPLC; Ctrl 9.1
Experimental: A 10 mL aliquot of the AAD culture broth obtained in Example 1 was centrifuged, 8 mL of the supernatant was removed, and the cells were suspended in the remaining culture supernatant, to obtain a 5-fold concentrated culture broth. This was used for the following reactions as an AAD concentrate. Similarly, 5-fold concentrates were prepared from the HmaS At culture broths, Md1B culture broth, and Md1C culture broth obtained in Examples 2 to 4, and used for the following reactions as a HmaS At concentrates, Md1B concentrate, and Md1C concentrate. A 1 mL aliquot of the Cat 1 culture broth obtained in Example 6 was centrifuged, 0.8 mL of the supernatant was removed, and the cells were suspended in the remaining culture supernatant, to obtain a 5-fold concentrated culture broth. This was used for the following reactions as a Cat 1 concentrate. Similarly, 5-fold concentrates were prepared from the Cat 2 to 15 culture broths and the Ctrl culture broth, and used for the following reactions as Cat 2 to 15 concentrates and a Ctrl concentrate.
After 20 hours, the reaction mixture was centrifuged, a 0.49 mL aliquot of the supernatant was mixed with 0.01 mL of the Md1C concentrate, and the resultant mixture was put into a test tube and shaken at 25° C. […]

Molecule | Generated amount of mandelate ([1]; 0.001 mM hydrogen peroxide added) | Generated amount of mandelate ([1]; 0.01 mM hydrogen peroxide added) | Generated amount of mandelate ([1]; 0.1 mM hydrogen peroxide added) | Generated amount of mandelate ([1]; 1 mM hydrogen peroxide added) | Effect on HMAS activity ([1]; 0.01 to 1 mM of hydrogen peroxide added) | Benzaldehyde [2]
OO [Hydrogen peroxide, hydrogen peroxide] | 103% | 94% | 39% | 1% | inhibits HMAS activity | 
Cat 2: Cat HPII derived from E. coli (SEQ ID NO: 6), concentrated culture broth of expressing strain |  |  |  |  |  | 10.7 mM

From US20220251611A1, “BENZALDEHYDE PRODUCTION METHOD” (AJINOMOTO CO., INC., priority 2019, published 2022)
